Patent US12091411B2, “IRAK degraders and uses thereof” (Kymera Therapeutics, Inc., priority 2022, dated 2024)
Read-outs that look alike come from different tables or passages of the source.

Target: T1, IRAK4 (Homo sapiens, UniProt Q9NWZ3)
T1 construct: Degradation of IRAK4 in OCI-LY10 was quantitatively measured using Meso Scale Discovery technology; endogenous in cells; host or cells: OCI-LY10
T1 sequence (Q9NWZ3 1-460): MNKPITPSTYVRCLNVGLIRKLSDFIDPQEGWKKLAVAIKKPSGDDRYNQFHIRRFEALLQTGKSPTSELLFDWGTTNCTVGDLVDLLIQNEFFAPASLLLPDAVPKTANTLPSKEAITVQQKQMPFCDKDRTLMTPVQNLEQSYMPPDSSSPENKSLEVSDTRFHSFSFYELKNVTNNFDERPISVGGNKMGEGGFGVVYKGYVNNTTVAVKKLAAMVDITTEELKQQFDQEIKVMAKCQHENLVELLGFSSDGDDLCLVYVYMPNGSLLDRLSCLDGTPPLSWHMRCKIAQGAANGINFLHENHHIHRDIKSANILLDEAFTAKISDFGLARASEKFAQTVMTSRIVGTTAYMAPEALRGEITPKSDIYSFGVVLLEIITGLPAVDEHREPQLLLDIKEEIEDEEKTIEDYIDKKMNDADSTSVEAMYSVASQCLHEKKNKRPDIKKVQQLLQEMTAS
Experiment: IRAK4 MSD Degradation in OCI-LY10
Assay type: cell-based
Details: OCI-LY10 cells, MSD
In short: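 OCI-LY10 cells exposed to 8-point 1:3 compound series (top 1 to 10 μM) for 4 to 24 h at 37 °C, 5% CO2. Lysate IRAK4 quantified by MSD sandwich immunoassay. DC50 from three-parameter logistic fit, binned A (<0.01 μM) to D (>0.2 μM or not tested).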

[1] = 4 hrs incubation, read-out: IRAK4 degradation in OCI-LY10 at 4 hrs: DC50
[2] = 24 hrs incubation, read-out: IRAK4 degradation in OCI-LY10 at 24 hrs: DC50

Row | DC50 [1] [nM] | DC50 [2] [nM] | SMILES
1 | > 200 | < 10 | CC1CCN(c2ccn3ncc(C(=O)Nc4cn([C@H]5CC[C@H](CN(C)C6CCN(c7cccc8c7n(C)c(=O)n8C7CCC(=O)NC7=O)CC6)CC5)nc4C(F)F)c3n2)CC1 (stereo partly shown) [I-271]
2 | > 200 | < 10 | CN(C[C@H]1CC[C@H](n2cc(NC(=O)c3cnn4ccc(N5CC6(CC6)C5)nc34)c(C(F)F)n2)CC1)C1CCN(c2cccc3c2n(C)c(=O)n3C2CCC(=O)NC2=O)CC1 (stereo partly shown) [I-274]
3 | > 200 | < 10 | CN(C[C@H]1CC[C@H](n2cc(NC(=O)c3cnn4ccc(N5CC(C)(C)C5)nc34)c(C(F)F)n2)CC1)C1CCN(c2cccc3c2n(C)c(=O)n3C2CCC(=O)NC2=O)CC1 (stereo partly shown) [I-275]
4 | > 200 | < 10 | CN(C[C@H]1CC[C@H](n2cc(NC(=O)c3cnn4ccc(N5CC(F)(F)C5)nc34)c(C(F)F)n2)CC1)C1CCN(c2cccc3c2n(C)c(=O)n3C2CCC(=O)NC2=O)CC1 (stereo partly shown) [I-276]
5 | > 200 | < 10 | CN(C[C@H]1CC[C@H](n2cc(NC(=O)c3cnn4ccc(N5CCC5)nc34)c(C(F)F)n2)CC1)C1CCN(c2cccc3c2n(C)c(=O)n3C2CCC(=O)NC2=O)CC1 (stereo partly shown) [I-277]
6 | > 200 | > 200 | Cn1c(=O)n(C2CCC(=O)NC2=O)c2cccc(C#CCN3CCN(C[C@H]4CC[C@H](n5cc(NC(=O)c6cnn7ccc(N8C[C@H]9C[C@@H]8CO9)nc67)c(C(C)(C)O)n5)CC4)CC3)c21 (stereo partly shown) [I-279]
7 | > 200 | 10 to 100 | CC1CCN(c2ccn3ncc(C(=O)Nc4cn([C@H]5CC[C@H](CN6CCN(CC#Cc7cccc8c7n(C)c(=O)n8C7CCC(=O)NC7=O)CC6)CC5)nc4C(F)F)c3n2)CC1 (stereo partly shown) [I-282]
8 | > 200 | > 200 | Cn1c(=O)n(C2CCC(=O)NC2=O)c2cccc(C#CCN3CCN(C[C@H]4CC[C@H](n5cc(NC(=O)c6cnn7cccnc67)c(C(C)(C)O)n5)CC4)CC3)c21 (stereo partly shown) [I-284]

More lines, now with the values behind:

Row | SMILES | DC50 [1] [nM] | DC50 [2] [nM]
9 | Cc1ccc(-c2nn([C@H]3CC[C@H](CN4CCN(CC#Cc5cccc6c5n(C)c(=O)n6C5CCC(=O)NC5=O)CC4)CC3)cc2NC(=O)c2cncc(C#N)c2)nc1 (stereo partly shown) [I-269] | > 200 | > 200
10 | CN(C[C@H]1CC[C@H](n2cc(CC(=O)c3cnn4ccc(N5CCC(C)(C)CC5)nc34)c(C(F)F)n2)CC1)C1CCN(c2cccc3c2n(C)c(=O)n3C2CCC(=O)NC2=O)CC1 (stereo partly shown) [I-270] | > 200 | 10 to 100
11 | CN(C[C@H]1CC[C@H](n2cc(NC(=O)c3cnn4ccc(N5CCC6(CC5)CC6)nc34)c(C(F)F)n2)CC1)C1CCN(c2cccc3c2n(C)c(=O)n3C2CCC(=O)NC2=O)CC1 (stereo partly shown) [I-272] | > 200 | < 10
12 | CN(C[C@H]1CC[C@H](n2cc(NC(=O)c3cnn4ccc(N5CCC(F)(F)CC5)nc34)c(C(F)F)n2)CC1)C1CCN(c2cccc3c2n(C)c(=O)n3C2CCC(=O)NC2=O)CC1 (stereo partly shown) [I-273] | > 200 | < 10
13 | CN(C[C@H]1CC[C@H](n2cc(NC(=O)c3cnn4ccc(N5CCCC5)nc34)c(C(F)F)n2)CC1)C1CCN(c2cccc3c2n(C)c(=O)n3C2CCC(=O)NC2=O)CC1 (stereo partly shown) [I-278] | > 200 | < 10
14 | Cn1c(=O)n(C2CCC(=O)NC2=O)c2cccc(C#CCOC3CCN(C[C@H]4CC[C@H](n5cc(NC(=O)c6cnn7ccc(N8C[C@H]9C[C@@H]8CO9)nc67)c(F)n5)CC4)CC3)c21 (stereo partly shown) [I-280] | > 200 | > 200
15 | Cn1c(=O)n(C2CCC(=O)NC2=O)c2cccc(C#CCN3CCN(C[C@H]4CC[C@H](n5cc(NC(=O)c6cnn7ccc(N8C[C@H]9C[C@@H]8CO9)nc67)c(F)n5)CC4)CC3)c21 (stereo partly shown) [I-281] | > 200 | > 200
16 | Cn1c(=O)n(C2CCC(=O)NC2=O)c2cccc(C#CCN3CCN(C[C@H]4CC[C@H](n5cc(NC(=O)c6cnn7ccc(N8CCCCCC8)nc67)c(C(F)F)n5)CC4)CC3)c21 (stereo partly shown) [I-283] | > 200 | 10 to 100
17 | Cn1c(=O)n(C2CCC(=O)NC2=O)c2cccc(C#CCN3CCN(C[C@H]4CC[C@H](n5cc(NC(=O)c6cnn7ccc(N8CCC8)nc67)c(C(C)(C)O)n5)CC4)CC3)c21 (stereo partly shown) [I-285] | > 200 | > 200
